Measurements reported in ChEMBL document CHEMBL4725408, “Antibacterial Spiropyrimidinetriones with N-Linked Azole Substituents on a Benzisoxazole Scaffold Targeting DNA Gyrase” (J Med Chem, 2020).
Converted amounts (≈) assume the structure as drawn. The source made the active and inactive calls. No cut-off for these calls is given here.

Experiments:
Haemophilus influenzae = experiment: Antibacterial activity against Haemophilus influenzae ARC737 by broth microdilution method; type: functional
[1] = n-octanol/phosphate buffer partition coefficient, log D of the compound at pH 7.4 measured after 1 hr by UV-LC/MS based shake flask method; type: physicochemical
Staphylococcus aureus [2] = experiment: Antibacterial activity against methicillin sensitive Staphylococcus aureus ARC516 by broth microdilution method; type: functional
Streptococcus pneumoniae = experiment: Antibacterial activity against Streptococcus pneumoniae ARC548 by broth microdilution method; type: functional
L5178Y = experiment: Genotoxicity in mouse L5178Y cells using DAPI staining by microscopy based micronucleation assay; type: toxicity, cell-based
Staphylococcus aureus [3] = experiment: Antibacterial activity against methicillin sensitive Staphylococcus aureus ARC516 in presence of human serum by broth microdilution method; type: functional
Escherichia coli = experiment: Antibacterial activity against Escherichia coli ARC523 by broth microdilution method; type: functional
[4] = Unbound plasma clearance in Wistar Han rat at 3 mg/kg, iv administered as 15 mins infusion by LC-MS/MS analysis; type: ADME, organism-based; set-up: unit not given here; conditions: in vivo, 0.25 h
[5] = Plasma clearance in Wistar Han rat at 3 mg/kg, iv administered as 15 mins infusion by LC-MS/MS analysis; type: ADME, organism-based; set-up: unit not given here; conditions: in vivo, 0.25 h
[6] = Inhibition of recombinant Escherichia coli DNA gyrase AB expressed in Escherichia coli BL21 (DE3) using relaxed pJT519 DNA as substrate preincubated for 20 mins followed by 5'-BODIPY-TMR-TTCTTCTTCT addition and measured after 1 hr by fluorescence anisotropy
[7] = Solubility of the compound by high throughput solubility assay; type: physicochemical
Staphylococcus aureus [8] = experiment: Antibacterial activity against methicillin/quinolone-resistant Staphylococcus aureus ARC517 by broth microdilution method; type: functional
[9] = Protein binding in human plasma assessed as unbound fraction at 10 uM measured after 16 hrs by LC-MS/MS based equilibrium dialysis method; type: ADME, cell-free
Streptococcus pyogenes = experiment: Antibacterial activity against Streptococcus pyogenes ARC838 by broth microdilution method; type: functional
Staphylococcus aureus [10] = experiment: Antibacterial activity against methicillin sensitive Staphylococcus aureus ARC516 infected in CD-1 mouse neutropenic thigh infection model assessed as log reduction in colony forming unit at 150 mg/kg, ip measured after 24 hrs relative to untreated control; type: functional
[11] = Volume of distribution at steady state in Wistar Han rat at 3 mg/kg, iv administered as 15 mins infusion by LC-MS/MS analysis; type: ADME, organism-based; conditions: in vivo, read-out: Vdss
Staphylococcus aureus [12] = experiment: Antibacterial activity against methicillin sensitive Staphylococcus aureus ARC516 infected in CD-1 mouse neutropenic thigh infection model assessed as log reduction in colony forming unit at 25 to 150 mg/kg, ip measured after 12 hrs relative to initial treatment control; type: functional; conditions: dose mg/kg 25-150
[13] = Oral bioavailability in Wistar Han rat at 10 mg/kg by LC-MS/MS analysis; type: ADME, organism-based; conditions: in vivo
[14] = Protein binding in mouse plasma assessed as unbound fraction at 10 uM measured after 16 hrs by LC-MS/MS based equilibrium dialysis method; type: ADME, cell-free
Staphylococcus aureus [15] = experiment: Antibacterial activity against methicillin sensitive Staphylococcus aureus ARC516 infected in CD-1 mouse neutropenic thigh infection model assessed as log reduction in colony forming unit at 150 mg/kg, ip measured after 24 hrs relative to initial treatment control; type: functional; conditions: dose mg/kg 25-150
[16] = Half life in CD-1 mouse at 3 mg/kg, iv administered as 15 mins infusion by LC-MS/MS analysis; type: ADME, organism-based; conditions: in vivo
[17] = Protein binding in rat plasma assessed as unbound fraction at 10 uM measured after 16 hrs by LC-MS/MS based equilibrium dialysis method; type: ADME, cell-free
[18] = Plasma clearance in CD-1 mouse at 3 mg/kg, iv administered as 15 mins infusion by LC-MS/MS analysis; type: ADME, organism-based; conditions: in vivo, 0.25 h
[19] = Unbound plasma clearance in CD-1 mouse at 3 mg/kg, iv administered as 15 mins infusion by LC-MS/MS analysis; type: ADME, organism-based; conditions: in vivo, 0.25 h
Staphylococcus aureus [20] = experiment: Antibacterial activity against methicillin sensitive Staphylococcus aureus ARC516 infected in CD-1 mouse neutropenic thigh infection model assessed as reduction in colony forming unit at 25 to 50 mg/kg, ip measured after 24 hrs; type: functional, organism-based
[21] = Oral bioavailability in CD-1 mouse at 10 mg/kg by LC-MS/MS analysis; type: ADME, organism-based; conditions: in vivo
[22] = Volume of distribution at steady state in CD-1 mouse at 3 mg/kg, iv administered as 15 mins infusion by LC-MS/MS analysis; type: ADME, organism-based; conditions: in vivo, read-out: Vdss
[23] = Half life in Wistar Han rat at 3 mg/kg, iv administered as 15 mins infusion by LC-MS/MS analysis; type: ADME, organism-based; conditions: in vivo
[24] = Ratio of MIC for antibacterial activity against methicillin/quinolone-resistant Staphylococcus aureus ARC517 to protein binding in human plasma assessed as unbound fraction
Staphylococcus aureus [25] = experiment: Antibacterial activity against methicillin sensitive Staphylococcus aureus ARC516 infected in CD-1 mouse neutropenic thigh infection model assessed as log reduction in colony forming unit at 100 mg/kg, ip bid in presence of ABT relative to initial treatment control; type: functional
Staphylococcus aureus [26] = experiment: Antibacterial activity against methicillin sensitive Staphylococcus aureus ARC516 infected in CD-1 mouse neutropenic thigh infection model assessed as reduction in colony forming unit at 20 mg/kg, ip bid in presence of ABT; type: functional, organism-based

Structure (SMILES)	MIC (Haemophilus influenzae)	logD at 1 h [1]	MIC (Staphylococcus aureus [2])	MIC (Streptococcus pneumoniae)	NOAEL (L5178Y)	MIC (Staphylococcus aureus [3])	MIC (Escherichia coli)	CL free [4]	CL [5]	IC50 [6]	solubility [7]	MIC (Staphylococcus aureus [8])	fraction unbound at 16 h, 10 µM [9]	MIC (Streptococcus pyogenes)	Vd [11]	bioavailability [13]	fraction unbound at 16 h, 10 µM [14]	half-life [16]	fraction unbound at 16 h, 10 µM [17]	CL [18]	also measured
C[C@@H]1CN2c3c(cc4c(-n5ncnc5CO)noc4c3F)CC3(C(=O)NC(=O)NC3=O)[C@H]2[C@H](C)O1	0.78 µM (≈ 0.379 µg/mL)	1.4	0.31 µM (≈ 0.15 µg/mL)	0.39 µM (≈ 0.189 µg/mL)	12 µM	0.49 µM	50 µM (≈ 24.3 µg/mL)	220	37	190 nM	> 1000 µM	1.6 µM (≈ 0.777 µg/mL)	0.17	0.78 µM (≈ 0.379 µg/mL)	–	–	–	–	–	–	–
COc1ncnn1-c1noc2c(F)c3c(cc12)CC1(C(=O)NC(=O)NC1=O)[C@H]1[C@H](C)O[C@H](C)CN31	0.78 µM (≈ 0.379 µg/mL)	1.7	0.098 µM (≈ 0.0476 µg/mL)	0.39 µM (≈ 0.189 µg/mL)	25 µM	0.39 µM	30 µM (≈ 14.6 µg/mL)	93	13	320 nM	900 µM (≈ 437 µg/mL)	0.39 µM (≈ 0.189 µg/mL)	0.14	0.39 µM (≈ 0.189 µg/mL)	1.9 L/kg	48%	0.2	2.52 h	0.13	0.66 mL/h/kg	log(activity) (Staphylococcus aureus [10]): 4.5; log(activity) (Staphylococcus aureus [12]): 1; log(activity) (Staphylococcus aureus [15]): 2; CL free [19]: 3.3 mL/h/kg; Activity (Staphylococcus aureus [20]): inactive; bioavailability [21]: 62%; Vd [22]: 2.4 L/kg; half-life [23]: 1.69 h
C[C@@H]1CN2c3c(cc4c(-n5cnc(C#N)n5)noc4c3F)CC3(C(=O)NC(=O)NC3=O)[C@H]2[C@H](C)O1	3.1 µM (≈ 1.49 µg/mL)	2	0.2 µM (≈ 0.0961 µg/mL)	1.6 µM (≈ 0.769 µg/mL)	< 6 µM	3.1 µM	100 µM (≈ 48 µg/mL)	2600	200	1300 nM	5 µM (≈ 2.4 µg/mL)	0.39 µM (≈ 0.187 µg/mL)	–	0.8 µM (≈ 0.384 µg/mL)	–	–	–	–	–	–	–
CCNc1ncnn1-c1noc2c(F)c3c(cc12)CC1(C(=O)NC(=O)NC1=O)[C@H]1[C@H](C)O[C@H](C)CN31	0.39 µM (≈ 0.194 µg/mL)	2.2	0.049 µM (≈ 0.0244 µg/mL)	< 0.2 µM	–	< 0.2 µM	12 µM (≈ 5.98 µg/mL)	130	11	97 nM	3 µM (≈ 1.5 µg/mL)	0.098 µM (≈ 0.0489 µg/mL)	0.037	< 0.2 µM	–	–	–	–	–	–	–
C[C@@H]1CN2c3c(cc4c(N5C(=O)OC[C@@H]5C)noc4c3F)CC3(C(=O)NC(=O)NC3=O)[C@H]2[C@H](C)O1 [ZOLIFLODACIN]	–	1.7	0.2 µM (≈ 0.0975 µg/mL)	–	> 400 µM	0.39 µM	6.2 µM (≈ 3.02 µg/mL)	–	–	170 nM	–	0.78 µM (≈ 0.38 µg/mL)	0.18	–	1.5 L/kg	31%	0.17	0.61 h	0.13	3.42 mL/h/kg	Ratio [24]: 4.3; log(activity) (Staphylococcus aureus [25]): 1.8; CL free [19]: 20.1 mL/h/kg; bioavailability [21]: 43.5%; Activity (Staphylococcus aureus [26]): Active; Vd [22]: 3 L/kg; half-life [23]: 0.79 h
